Test results reported in PubChem BioAssay (NCI).
Values joined by “and” are separate entries in the source; they are usually repeats but may differ in a detail not shown here. Equal entries are not always repeated.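 The compound was tested at five concentrations on cells cultured in 96-well plates, with a 48-hour exposure period. Abbreviation: GI50, concentration required for 50% inhibition of growth. TGI is the concentration that stops growth completely.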 Where a SMILES comes first, the peptide text is derived from it. [ ]: non-standard residue; d: D form. The star is where a group is joined. ξ: configuration not given here. 4Abz = Nc1ccc(C(=O)O)cc1; ξL = CC(C)CC(N)C(=O)O; NHOH = ON*

How the values were obtained:
Test in all cases: inhibition of tumour cell growth, NCI panel, 48 h
DU-145 prostate = system: DU-145 prostate
NCI/ADR-RES ovarian = system: NCI/ADR-RES ovarian
MDA-MB-435 = system: MDA-MB-435
T-47D breast = system: T-47D breast
BT-549 breast = system: BT-549 breast
SNB-78 CNS = system: SNB-78 CNS
KM20L2 colon = system: KM20L2 colon
M19-MEL melanoma = system: M19-MEL melanoma
DMS 273 small cell lung = system: DMS 273 small cell lung

| Compound | TGI (DU-145 prostate) | TGI (NCI/ADR-RES ovarian) | TGI (MDA-MB-435) | TGI (T-47D breast) | GI50 (DU-145 prostate) | GI50 (NCI/ADR-RES ovarian) | GI50 (BT-549 breast) | TGI (BT-549 breast) | GI50 (MDA-MB-435) | GI50 (T-47D breast) | TGI (SNB-78 CNS) | TGI (KM20L2 colon) | TGI (M19-MEL melanoma) | TGI (DMS 273 small cell lung) |
| --- | --- | --- | --- | --- | --- | --- | --- | --- | --- | --- | --- | --- | --- | --- |
| NC(=O)c1ncn(C2CCC(CP(=O)(O)O)C2)c1N (stereo not drawn) | > 100 µM | > 100 µM | > 100 µM | > 100 µM |  |  |  |  |  |  |  |  |  |  |
| COC(=O)c1ccc2c(c1)[n+](=O)c(C(C)=O)c(C(F)(F)F)n2[O-] | 3.23 µM | 6.41 µM | 3.6 µM | 4.2 µM | 1.83 µM | 2.48 µM | 2.07 µM | 4.51 µM | 1.75 µM | 2.06 µM |  |  |  |  |
| NS(=O)(=O)OC[C@H]1O[C@@H](n2cnc3c(N[C@H]4CCc5ccccc54)ncnc32)[C@H](O)[C@@H]1O | 1.36 µM | > 100 µM | 0.351 µM | 1.41 µM | 0.0838 µM | 5.05 µM | 0.0298 µM | 0.081 µM | 0.114 µM | 0.156 µM |  |  |  |  |
| COc1ccc(/C(C#N)=C/c2nc3c(N4CCOCC4)nc(Cl)nc3n2C)cc1OC | 1.3 µM | < 0.01 µM | < 0.01 µM | 3.15 µM | < 0.01 µM | < 0.01 µM | < 0.01 µM | 0.244 µM | < 0.01 µM | 0.272 µM |  |  |  |  |
| Cn1c(=O)c2[nH]c(Nc3ccccc3)nc2n(C)c1=O | > 10 µM |  | > 10 µM | > 10 µM |  |  |  |  |  |  |  |  |  |  |
| O=C1/C=C(/c2ccc(O)cc2)[C@H](O)Cc2ccc(OC3OC(CO)C(O)C(O)C3O)cc2O1 (stereo partly drawn) (tested in a mixture with another compound) |  |  |  |  |  |  |  |  |  |  | > 100 µM | > 100 µM | > 100 µM |  |
| CCCCCc1c(C)[nH]c(/C=C2\N=C(c3ccc[nH]3)C=C2Oc2ccc(OC)cc2)c1C | 4.38 µM and 1.52 µM | 2.13 µM and 1.14 µM | 0.387 µM and 0.153 µM | 0.968 µM and 1.24 µM | 0.165 µM and 0.0387 µM | 0.37 µM and 0.203 µM | 0.353 µM and 0.246 µM | 2.6 µM and 2.36 µM | 0.149 µM and 0.0331 µM | 0.193 µM and 0.0295 µM |  |  |  |  |
| COc1ccc(C2CC(c3cccc(Nc4ccnc5cc(Cl)ccc45)c3)=NN2c2ccccc2)cc1 (stereo not drawn) | > 100 µM | 26.4 µM | 2.92 µM | 20 µM | 14 µM | 1.51 µM | 7.42 µM | 39.2 µM | 0.219 µM | 0.171 µM |  |  |  |  |
| N#CC1=C(N)NC(=S)NC1c1ccc(-c2ccc(-c3nc4ccccc4s3)cc2)o1 (stereo not drawn) | > 50 µM | > 50 µM | > 50 µM | > 50 µM | 42.3 µM | > 50 µM | 21.7 µM | > 50 µM | 39.1 µM | 43.2 µM |  |  |  |  |
| C=C1c2c(C)nn(-c3ccccc3)c2N(C)C23C[C@@H]1C1(C)c4c(C)nn(-c5ccccc5)c4N(C)C(C)(C[C@H]12)C3 (stereo partly drawn) | > 100 µM | > 100 µM | > 100 µM | > 100 µM | 8.7 µM | 6.04 µM | 5.55 µM | > 100 µM | 4.12 µM | 2.13 µM |  |  |  |  |
| Cc1cc(CC(O)(C(F)(F)F)C(F)(F)F)cc(CC(O)(C(F)(F)F)C(F)(F)F)n1 | 7.94 µM | 5.95 µM | 8.26 µM | 7.3 µM |  |  |  |  |  |  |  |  |  |  |
| S=c1sc2ccccc2n1CN1CCN(Cc2ccccc2)CC1 | > 100 µM | > 100 µM | > 100 µM | > 100 µM |  |  |  | > 100 µM |  |  |  |  |  |  |
| COc1ncn(C2C=C(CO)C(O)C2O)c(=O)n1 (stereo not drawn) |  |  |  |  |  |  |  |  |  |  | > 100 µM | > 100 µM |  | > 100 µM |
| Nc1nc(Cl)cc2c1ncn2C1OC(CO)C(O)C1O (stereo not drawn) | > 100 µM | > 100 µM | > 100 µM | > 100 µM | > 100 µM | > 100 µM | > 100 µM | > 100 µM | > 100 µM | > 100 µM |  |  |  |  |
| Cc1ccc(NC(=O)C(=O)C2C(=O)C3=C(CC2(C)C)NC2C=CC=CC2S3)c(C)c1 (stereo not drawn) | > 100 µM | > 100 µM | > 100 µM |  |  |  |  | > 100 µM |  |  |  |  |  |  |
| Oc1ccc(Br)cc1CN1CCN(Cc2ccc(Cl)cc2)CC1 | > 100 µM | > 100 µM | 90.4 µM | > 100 µM | 46.3 µM | 17.2 µM | 38.2 µM | > 100 µM | 20.8 µM | 8.9 µM |  |  |  |  |
| NC(=O)NC1=NCCC(=O)N1CCc1c[nH]c2ccccc12 | 52 µM | 52.8 µM | 41.1 µM | 65.5 µM |  |  |  |  |  |  |  |  |  |  |
| CC(C)CC(NC(=O)[C@@H]1CCCN1C(=O)CNC(=O)c1ccc(N)cc1)C(=O)N[C@H](C)C(=O)NO (stereo partly drawn) (H-[4Abz]GP[ξL][dA]-{NHOH}) | > 100 µM | > 100 µM | > 100 µM | > 100 µM | > 100 µM | > 100 µM | > 100 µM | > 100 µM | > 100 µM | > 100 µM |  |  |  |  |
| N=C(N)c1ccc(-c2ccc(-c3ccco3)o2)cc1 | 19 µM | 28.5 µM | 4.03 µM | 12.7 µM | 6.25 µM | 10.1 µM | 5.9 µM | 19.8 µM | 1.83 µM | 2.92 µM |  |  |  |  |
| COC(=O)C1=C(O)C(C(=O)OC)[C@@]2(O)[C@@H](C(=O)OC)C(c3ccc(OC(=O)C(Cc4ccccc4)NC(C)=O)cc3)C[C@@H]1[C@@H]2C(=O)OC (stereo partly drawn) |  | > 100 µM | 50.2 µM | > 100 µM |  | 60.7 µM | 38 µM | > 100 µM | 23.5 µM | 39.2 µM |  |  |  |  |
| C=CC[n+]1c(/C=C2\Sc3ccccc3N2C)sc(-c2ccccc2)c1-c1ccccc1 | 12.2 µM | 61.7 µM | 1.68 µM | 0.782 µM | 0.439 µM | 7.89 µM | 0.296 µM | 0.907 µM | 0.335 µM | 0.242 µM |  |  |  |  |
| COc1cc2c(cc1OC)[C@@H]1[C@H](C2=O)c2ccc([N+](=O)[O-])cc2C(=O)N1CCCBr | > 20.4 µM | 9.93 µM |  | > 100 µM | 0.553 µM |  | 1.96 µM | 23.9 µM |  | < 0.01 µM |  |  |  |  |
| COC(=O)C1=C(SC)SC2(C(=O)OC)C3C=C(C)C4C(N13)C42C(=O)OC (stereo not drawn) |  |  |  |  |  |  |  |  |  |  |  | > 100 µM | > 100 µM | > 100 µM |
| COC1=CC(=O)c2c(O)c3c(c(O)c2C1=O)CC(C)(O)OC3 (stereo not drawn) | 15 µM | > 25.9 µM | 3.05 µM | 8.38 µM |  |  |  | 18.7 µM |  |  |  |  |  |  |
